Assay results reported in patent US9364554B2, “Extracellular targeted drug conjugates” (priority 2009, dated 2016).
pIC50: −log10 of the molar value. Like-named read-outs stand apart in the source and are kept apart here.

Key:
[1] = test system: A549; experiment: In vitro cell proliferation assay (CellTiter-Glo, 3 days) A549; format: cell-based, human; details: for activity decrease when attached to the PEG24 linker and capped, compared to the free uncoupled agent: Example 15; for pIC50: Homo sapiens
Procedure: (§1) In vitro cell proliferation assays. […] All cell lines were maintained in complete media [RPMI medium 1640 supplemented with 10% (wt/vol) fetal bovine serum and Gentamycin (50 μg/ml)]. Cells were plated at a density of 1250 (H460 and A549) or 1825 (HCT15 and MCF7) cells per well of each 384-well white tissue culture treated microtiter plate in 20 uls complete media, and then were grown for 24 hour at 37° C. with 7% CO2 in a humidified incubator before agent/conjugate addition. In a separate 96-well plate, agent and antibody conjugate (in PBS) stocks were serially diluted in complete media at 5× final working concentrations, and 5 ul added to the cells used in the assay. Cells were incubated with the agent/conjugate for 3 days before cell viability testing. Cell viability testing used the CellTiter-Glo luminescent cell viability assay (Promega, Madison, Wis.). IC50 values of the agents to each cell line were determined using GraphPad Prism 5 software.
For the experiment below, α-Fl-CEN10-105 (also termed α-Fl-106), CEN10-105-Cys (also termed PEG24106) and M53-PEG24-CEN09-106 were varied as indicated in FIG. 11. […] All were assayed in the A549 cell proliferation assay. Cells were maintained in complete media [RPMI medium 1640 supplemented with 10% (wt/vol) fetal bovine serum and Gentamycin (50 μg/ml)]. Cells were plated at a density of 1250 per well of a 384-well white tissue culture treated microtiter plate in 20 uls complete media, then were grown for 24 hour at 37° C. with 7% CO2 in a humidified incubator before agent/conjugate addition. In a separate 96-well plate, agent and antibody conjugate (in PBS) stocks were serially diluted in complete media at 5× final working concentrations, and 5 uls added to the cells used in the assay. For the competition assay (M53 Comp) M53 was serially diluted from 500 to 0.11 nM in the presence of 5 nM PEG24-106, and 5 ul of these dilutions were added to cells used in this assay. Cells were incubated with the agent/conjugate for 3 days before cell viability testing. Cell viability testing used the CellTiterGlo luminescent cell viability assay (Promega, Madison, Wis.).
Cytotoxicity of the above EDCs were evaluated in vitro on the NSCLC line A549. Cells were maintained in complete media [RPMI medium 1640 supplemented with 10% (wt/vol) fetal bovine serum and Gentamycin (50 μg/ml)]. Cells were plated at a density of 1250 per well of a 384-well white tissue culture treated microtiter plate in 20 uls complete media, then were grown for 24 hour at 37° C. with 7% CO2 in a humidified incubator before conjugate addition. In a separate 96-well plate, ADC (in PBS) stocks were serially diluted in complete media at 5× final working concentrations, and 5 uls added to the cells used in the assay. Cells were incubated in the presence of the compounds for 72 hrs prior to cell viability testing. Cell viability testing was performed using the CellTiter-Glo luminescent cell viability assay (Promega, Madison, Wis.).
Cytotoxicity of the above compounds were evaluated in vitro on the NSCLC line A549. Cells were maintained in complete media [RPMI medium 1640 supplemented with 10% (wt/vol) fetal bovine serum and Gentamycin (50 μg/ml)]. Cells were plated at a density of 1250 per well of a 384-well white tissue culture treated microtiter plate in 20 uls complete media, then were grown for 24 hour at 37° C. with 7% CO2 in a humidified incubator before agent addition.

[2] = test system: A375; experiment: Cytotoxicity IC50 on A375; format: cell-based; details: Homo sapiens
Source text: (§2) ND indicates IC50 values that could not be determined at the concentrations tested. The presence of the antibody M53's target on the cell surface as determined by M53 cell staining is indicated as Yes/No. The origin of the cell line and disease type for each cell line is also indicated.
Parent CEN09-106, CEN09-104 and CEN10-126 drugs were all linked to antibody M53 via the PEG24 linker as described in Example 5. The intermediate drug-PEG24's were capped with cysteine as described in Example 5. Cytotoxicity of the EDC's and the drug-PEG24 linkers were evaluated in vitro on the NSCLC line A549 and malignant melanoma cell line A375 as described in Example 5.

[3] = test system: MALME-3M; experiment: Cytotoxicity IC50 on MALME-3M; format: cell-based; details: Homo sapiens, Example 9
Source text: as §2

[4] = test system: MCF10a; experiment: Cytotoxicity IC50 on MCF10a; format: cell-based; details: Homo sapiens, MCF-10A; Example 9
Source text: as §2

[5] = test system: HCT15; experiment: In vitro cell proliferation assay (CellTiter-Glo, 3 days) HCT15; format: cell-based; details: Homo sapiens
Procedure: as §1

[6] = test system: MCF7; experiment: In vitro cell proliferation assay (CellTiter-Glo, 3 days) MCF7; format: cell-based; details: Homo sapiens
Procedure: as §1

[7] = test system: HT29; experiment: Cytotoxicity IC50 on HT29; format: cell-based; details: Homo sapiens, HT-29; Example 9
Source text: as §2

[8] = test system: H460; experiment: In vitro cell proliferation assay (CellTiter-Glo, 3 days) H460; format: cell-based; details: Homo sapiens
Procedure: as §1

[9] = test system: MB-231; experiment: Cytotoxicity IC50 on MB-231; format: cell-based; details: Homo sapiens; Example 9
Source text: as §2

[10] = test system: SKOV3; experiment: Cytotoxicity IC50 on SKOV3; format: cell-based; details: Homo sapiens, SK-OV-3; Example 9
Source text: as §2

[11] = test system: A431; experiment: Cytotoxicity IC50 on A431; format: cell-based; details: Homo sapiens, A-431; Example 9
Source text: as §2

[12] = test system: MEL2; experiment: Cytotoxicity IC50 on MEL2; format: cell-based; details: Homo sapiens, Example 9
Source text: as §2

[13] = test system: A549 cells; experiment: In vitro cell proliferation assay, Example 4 (CellTiter-Glo, 2 days); format: cell-based, human
Procedure: In vitro cell proliferation assays. […] All cell lines were maintained in complete media [RPMI medium 1640 supplemented with 10% (wt/vol) fetal bovine serum and Gentamycin ([…])]. Cells were plated at a density of 5,000 cells per well of each 96-well black tissue culture treated microtiter plate in 95 ul complete media, then were grown for 24 hour at 37° C. with 7% CO2 in a humidified incubator before agent/conjugate addition. In a separate 96-well plate, agent (in DMSO) and antibody conjugate (in PBS) stocks were serially diluted in complete media at 20× final working concentrations, and 5 ul added to the cells used in the assay. Doxorubicin was used as the control to monitor the behavior of the cell lines used. Cells were incubated with the agent/conjugate for 2 days before luminescence reading. Cell viability testing used the CellTiter-Glo luminescent cell viability assay (Promega, Madison, Wis.).

[14] = A549, read-out: IC50 A549, Example 15

**Q.** How did the “activity decrease when attached to the PEG24 linker and capped, compared to the free uncoupled agent” value [1] turn out when `C[C@]12CCC(=NNC(=O)CN)C=C1CCC1C2CC[C@]2(C)[C@@H](c3ccc(=O)oc3)CC[C@]12O` (stereo partly drawn) [CEN09-104, glycinyl hydrazine of scillarenone] was run?
**A.** ~5 fold

**Q.** And the pIC50 [1, 14]?
**A.** 7.04

**Q.** And the pIC50 ([2]; A-375, Example 15)?
**A.** 6.64

**Q.** How did the pIC50 [3] turn out when `C[C@]12CC[C@H](OC3OC[C@H](N)[C@@H](O)[C@@H]3O)C=C1CCC1C2CC[C@]2(C)[C@@H](c3ccc(=O)oc3)CC[C@]12O` (stereo partly drawn) [CEN09-106, Scillarenin-4-amino-4-deoxy-L-xylopyranoside] was run?
**A.** 8.27

**Q.** And the pIC50 [4]?
**A.** 8.18

**Q.** And the pIC50 ([5]; HCT-15, 72 h, read-out: IC50 HCT15)?
**A.** 8.63

**Q.** And the pIC50 ([5]; HCT-15, read-out: IC50 HCT15)?
**A.** 8.64

**Q.** And the pIC50 ([6]; MCF7, 72 h, read-out: IC50 MCF7)?
**A.** 8.73

**Q.** And the pIC50 ([6]; MCF7, read-out: IC50 MCF7)?
**A.** 8.59

**Q.** What about the pIC50 [7] of the same molecule?
**A.** 8.51

**Q.** What about the pIC50 ([8]; NCI-H460, 72 h, read-out: IC50 H460) of the same molecule?
**A.** 8.88

**Q.** And the pIC50 ([8]; NCI-H460, read-out: IC50 H460)?
**A.** 8.80

**Q.** What about the pIC50 [9] of the same molecule?
**A.** 8.15

**Q.** What about the pIC50 [10] of the same molecule?
**A.** 8.28

**Q.** What about the pIC50 ([1]; A549, 72 h, Example 14, cysteine-capped linker forms, A549, 72 hrs) of the same molecule?
**A.** 9.34

**Q.** And the pIC50 ([1]; A549, 72 h, read-out: IC50 A549, 3 days, CellTiter-Glo)?
**A.** 9.25

**Q.** What about the pIC50 ([1]; A549, read-out: IC50 A549, Example 9) of the same molecule?
**A.** 9.15

**Q.** And the pIC50 [1, 14]?
**A.** 9.30

**Q.** What about the pIC50 [11] of the same molecule?
**A.** 8.70

**Q.** What about the pIC50 [12] of the same molecule?
**A.** 8.37

**Q.** And the pIC50 ([2]; A-375, Example 9)?
**A.** 8.49

**Q.** And the pIC50 ([2]; A-375, Example 15)?
**A.** 8.85

**Q.** Which results are given for `C[C@]12CC[C@H](O[C@@H]3OC(CO)[C@@H](O)[C@H](O)C3N)C=C1CCC1C2CC[C@]2(C)[C@@H](c3ccc(=O)oc3)CC[C@]12O` (stereo partly drawn) [CEN10-126, scillarenin-2-deoxy-2-amino-β-D-glucopyranoside]?
**A.** activity decrease when attached to the PEG24 linker and capped, compared to the free uncoupled agent [1]: ~300 fold; pIC50 [1, 14]: 8.89

**Q.** With `CC1=C2C[C@H]3[C@@H](CC=C4C[C@@H](O)CC[C@@]43C)[C@@H]2CC[C@]12O[C@@H]1C[C@H](C)CN(CCCCCCNC(=O)CCOCCOCCOCCOCCOCCOCCOCCOCCOCCOCCOCCOCCOCCOCCOCCOCCOCCOCCOCCOCCOCCOCCOCCOCCNC(=O)CCN3C(=O)C=CC3=O)C1[C@H]2C` (stereo partly drawn) [CEN10-130] as the molecule, how does the pIC50 ([1]; A549, Example 10, working concentrations 0.9 to 1000 uM, read-out: IC50 A549) read?
**A.** 3.61

**Q.** Which results are given for `N[C@@H](C=O)[C@@H](O)[C@H](O)[C@H](O)CO` [GlcNH2, 2-amino-2-deoxy-D-Glucose, reference compound]?
**A.** pIC50 ([8]; NCI-H460, read-out: IC50 H460): < 3.00; pIC50 ([1]; A549, read-out: IC50 A549, Example 11, 457 nM to 1 mM): < 3.00

**Q.** `CC1=C2C[C@H]3[C@@H](CC=C4C[C@@H](O)CC[C@@]43C)[C@@H]2CC[C@]12O[C@@H]1C[C@H](C)CN[C@H]1[C@H]2C` [cyclopamine, Cyclopamine, reference compound] was tested. Which pIC50 ([1]; A549, read-out: IC50 A549) did it give?
**A.** 3.41

**Q.** With “scillarenin neo-4-amino-4-deoxy-L-xylopyranoside [CEN08-243]” as the molecule, how does the “A549 cell cytotoxicity (in words)” value ([13]; within the testing concentration range, antibodies alone = reduced antibody with linker, no agent) read?
**A.** display cytotoxic activity

**Q.** For “scillarenin-4-amino-4-deoxy-L-ribopyranoside [CEN09-107]”, which “activity of conjugate compared with free agent (in words)” value ([13]; A549, FIGS. 3-6) is on record?
**A.** more active when not conjugated to L15
